Results on one molecule are retold here after patent US11571418B2, “Platinum compounds that inhibit constitutive STAT3 signaling and induce cell cycle arrest and apoptosis of malignant cells” (H. LEE MOFFITT CANCER CENTER AND RESEARCH INSTITUTE, INC., priority 2011, dated 2023).

For one test, the system named is NIH3T3/v-Src. Briefly: TUNEL analysis of apoptosis. The class given is cell-based, mouse. An excerpt:
(§1) FIGS. 7A-7C. TUNEL analysis of PLATINUM-401-mediated apoptosis. (FIG. 7A) Normal NIH3T3 fibroblasts and their v-Src-transformed counterparts (NIH3T3/v-Src), human breast carcinoma cell lines (MDA-MB-453, MDA-MB-435, MDA-MB-468, and MDA-MB-231), human non-small cell lung cancer cell line (A549), human prostate cancer cell line (DU145), multiple myeloma 5TGM1 (mouse) and U266 (human) cell lines, mouse melanoma cell line (B16) and human pancreatic cancer cell line (Panc1) were all treated with or without PLATINUM-401 for 48 h and analyzed by TUNEL for DNA damage. For each cell line, the activated Stat3 status is indicated as (−), no constitutively-active Stat3 and (+), constitutively-active Stat3 (see FIG. 5A). Data are representative of 3 independent determinations; (FIG. 7B) Human breast cancer cell lines (MDA-MB-453, MDA-MB-468 and MDA-MB-435) were transfected with or without Stat3β or Stat3 antisense (Stat3AS), or were treated with or without Stat3 peptidomimetic inhibitor, ISS 610 (1 mM) or PLATINUM-401 (5 μM)). Forty-eight hours afterwards, cells were harvested and processed for TUNEL analysis; (FIG. 7C) The viral Src-transformed NIH3T3/v-Src fibroblasts were transfected with or without wild-type Stat3 (pRc/CMV Stat3 Flag) and treated with or without 5 μM PLATINUM-401 for 36 h. Cells were subsequently harvested for nuclear extracts preparation and Stat3 DNA-binding assay in vitro with EMSA analysis (left panel), or were processed for TUNEL analysis (right panel).
(§2) Cell proliferation and TUNEL assays—Proliferating cells were first treated with or without PLATINUM-401 for up to 48 h. A portion of cells were harvested for BrdU incorporation following the manufacturer's (BD Biosciences Pharmingen, San Diego, Calif.) instructions and analyzed by flow cytometry. Harvested cells were also analyzed for apoptosis via detection of TdT-mediated dUTP nick-end labeling (TUNEL) assay using Apoptosis Detection Systems Fluorescein according to the manufacturer's (Roche, Indianapolis, Ind.) instructions. Oligonucleotides and plasmids Transfections. The Stat3 antisense (5′-[…]-3′) (SEQ ID NO:3) or control mismatch oligonucleotides (5′-[…]-3′) (SEQ ID NO:4) were synthesized using phosphorothioate chemistry and were synthesized with 2′-Omethoxyethyl modification of the five terminal nucleotides (underlined; (Mora et al., 2002; Karras et al., 2000)) to increase stability. Transfections of Stat3AS and plasmids were carried out with Lipofectamine 2000 (LF) according to the manufacturer's instructions (Invitrogen, Carlsbad, Calif.). Briefly, cells were seeded at 1-2×10^6 cells/10-cm tissue-culture plates 18 h before transfection. Immediately before transfection, cells were washed once with PBS. Cells were transfected with luciferase reporters (4 μg) in the presence or absence of v-Src (4 μg), or were transfected with Stat3β (4 μg) or pRC/CMV Stat3 Flag (4 μg). Stat3AS transfections were carried out LF alone, or with LF/Stat3 antisense oligonucleotides, or LF/Stat3 mismatch oligonucleotides (final concentration of the oligonucleotides was 250 nM). After 2-3 h, the transfection medium was aspirated and cells washed with PBS before fresh medium added containing 10% FBS was added.
(§3) Cells were analyzed for DNA-strand breaks by TUNEL staining. […] The incidence of apoptosis correlated with the prevalence of constitutively-active Stat3 in malignant cells (FIG. 7, lower panel). […]

A further test concerns 5TGM1. The test is described as follows: TUNEL analysis of apoptosis. In kind it is cell-based, mouse. The settings on record: 48 h.
Text: as §1, §2, §3

A further test has as its system NIH3T3. The test is described as follows: TUNEL analysis of apoptosis. The class given is cell-based, mouse. The settings on record: 48 h, no aberrant Stat3 activity.
Text: as §1, §2, §3

In the next test the test system is B16. Briefly: TUNEL analysis of apoptosis. The class given is cell-based, mouse. The note with it: 48 h.
Text: as §1, §2, §3

The subject of the next test is Cyclin D1. The test is described as follows: Cyclin D1 detection, in situ and Western blot. The note with it: MDA-MB-435, 48 h. The class given is cell-based, human. The procedure:
FIGS. 8A and 8B. Inhibition of Cyclin D1 and Bcl-xL induction by PLATINUM-401. Viral Src-transformed fibroblasts (NIH3T3/v-Src) and human breast cancer cell line MDA-MB-435 that contain constitutively-activated Stat3 were treated with or without platinum complex for 48 h. Cells were processed for immunohistochemistry, or cell lysates were prepared from cells and subjected to 5% PAGE and Western blot analysis, as indicated in “Materials and Methods.” (FIG. 8A) Detection of Cyclin D1; (FIG. 8B) Detection of Bcl-xL. Positions of Cyclin D1 and Bcl-xL proteins are shown. Beta-actin levels are shown for normalizing for equal total protein. Data are representative of 3 independent determinations.
Western blot—Whole-cell lysates were prepared in boiling sodium dodecyl sulfate (SDS) sample-loading buffer to extract total proteins from the cytoplasm and nucleus. Equivalent amounts of total cellular protein were electrophoresed on an SDS-10% polyacrylamide gel and transferred onto nitrocellulose membranes. Probing of nitrocellulose membranes with primary antibodies and detection of horseradish peroxidase-conjugated secondary antibodies by enhanced chemiluminescence (Amersham, Piscataway, N.J.) were performed as previously described (Garcia et al., 2001; Turkson et al., 2004b; Zhang et al., 2000). […]

`CC(O)CN1CCN(CC(C)O)CC1` (stereo not drawn) [PLATINUM-401]: the TUNEL staining entry with NIH3T3/v-Src (48 h) is “Significant TUNEL staining”; in the test on 5TGM1, “Significant TUNEL staining”; with NIH3T3, “no TUNEL staining”; in the test with B16, “Significant TUNEL staining”. Moreover, the “compound-mediated apoptosis on overexpression of Stat3” value with NIH3T3/v-Src (NIH3T3/v-Src transfected with wild-type Stat3, 5 μM, 36 h) is reported as “minimizes the extent”. Moreover, in the test with Cyclin D1, the “Cyclin D1 level” value is listed as “significantly diminished”.
